Results: ChEMBL document CHEMBL1201862, “PubChem BioAssay data set” (2004)
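Results reflect a 48-hour exposure of cells in 96-well plates to compound at five concentrations. GI50: concentration for 50% inhibition of growth.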 Activity calls are given as the source filed them. Rule as the data show it: active = GI50 up to about 1.1 µM and inactive = higher.

Legend:
Test in all cases: growth of human tumour cells (NCI), 48 h
A498 = tested on: A498
A549 = tested on: A549
CCRF-CEM = tested on: CCRF-CEM
DLD-1 = tested on: DLD-1
HCC 2998 = tested on: HCC 2998
HOP-62 = tested on: HOP-62
HOP-92 = tested on: HOP-92
HT-29 = tested on: HT-29
IGROV-1 = tested on: IGROV-1
KM-20L2 = tested on: KM-20L2
NCI-H522 = tested on: NCI-H522
SK-MEL-2 = tested on: SK-MEL-2
SK-MEL-5 = tested on: SK-MEL-5
SK-OV-3 = tested on: SK-OV-3
SNB-19 = tested on: SNB-19
TK-10 = tested on: TK-10

Structure (SMILES) | GI50 (A498) | GI50 (A549) | GI50 (CCRF-CEM) | GI50 (DLD-1) | GI50 (HCC 2998) | GI50 (HOP-62) | GI50 (HOP-92) | GI50 (HT-29) | GI50 (IGROV-1) | GI50 (KM-20L2) | GI50 (NCI-H522) | GI50 (SK-MEL-2) | GI50 (SK-MEL-5) | GI50 (SK-OV-3) | GI50 (SNB-19) | GI50 (TK-10)
c1ccc2cc3c(cc2c1)OP1(Oc2cccc4cccnc24)(O3)Oc2cc3ccccc3cc2O1 | 18.2 µM (inactive) | 5.9 µM (inactive) | 0.984 µM (active) | 4.2 µM (inactive) | 8.59 µM (inactive) | 21 µM (inactive) | 3.57 µM (inactive) | 2.9 µM (inactive) | 5.36 µM (inactive) | 3.39 µM (inactive) | 2.39 µM (inactive) | 7.66 µM (inactive) | 3.17 µM (inactive) | 34.7 µM (inactive) | 24.3 µM (inactive) | 
CCOC(=O)C1(C(=O)OCC)OC(=O)NC2=C1CCCC2 | > 100 µM (inactive) | > 100 µM (inactive) | > 100 µM (inactive) | > 100 µM (inactive) | > 100 µM (inactive) | > 100 µM (inactive) | > 100 µM (inactive) | > 100 µM (inactive) | > 100 µM (inactive) | > 100 µM (inactive) | > 100 µM (inactive) | > 100 µM (inactive) | > 100 µM (inactive) | > 100 µM (inactive) | > 100 µM (inactive) | > 100 µM (inactive)
Cc1ccc(C(=O)C(C2=Nc3nnc(N)n3C2=O)C2=Nc3nnc(N)n3C2=O)cc1 | > 100 µM (inactive) | > 100 µM (inactive) | > 100 µM (inactive) | > 100 µM (inactive) | > 100 µM (inactive) |  | > 100 µM (inactive) | > 100 µM (inactive) | > 100 µM (inactive) | > 100 µM (inactive) | > 100 µM (inactive) | > 100 µM (inactive) | > 100 µM (inactive) | > 100 µM (inactive) | > 100 µM (inactive) | > 100 µM (inactive)
NC(=O)N1N=C2c3ccccc3OC[C@H]2[C@@H]1c1ccccc1 | 16.4 µM (inactive) | 5.4 µM (inactive) | 13.4 µM (inactive) | 6.5 µM (inactive) | 10.7 µM (inactive) | 23.8 µM (inactive) | 13.8 µM (inactive) | 27.6 µM (inactive) | 18.8 µM (inactive) | 23.4 µM (inactive) | 3.3 µM (inactive) | 27.6 µM (inactive) | 1.91 µM (inactive) | 8.95 µM (inactive) | 31.6 µM (inactive) | 52.4 µM (inactive)
O=[N+]([O-])c1ccc(-n2nnc(C3=NCCCN3)c2-c2ccc(Cl)cc2)cc1 | > 100 µM (inactive) | > 100 µM (inactive) | > 100 µM (inactive) | > 100 µM (inactive) | > 100 µM (inactive) | > 100 µM (inactive) | > 100 µM (inactive) | 58.5 µM (inactive) | > 100 µM (inactive) | > 100 µM (inactive) | > 100 µM (inactive) | 33.5 µM (inactive) | 82.2 µM (inactive) | > 100 µM (inactive) | > 100 µM (inactive) | > 100 µM (inactive)
CC1SC2=NC3=C(c4ccccc4C3=O)C(c3ccc(Br)cc3)N2C1=O (stereo unspecified) | > 100 µM (inactive) | 57.7 µM (inactive) | 33.3 µM (inactive) | 76 µM (inactive) | 60.8 µM (inactive) | > 100 µM (inactive) | 29 µM (inactive) | > 100 µM (inactive) | > 100 µM (inactive) | > 100 µM (inactive) | 19.3 µM (inactive) | 48.1 µM (inactive) | 41.2 µM (inactive) | > 100 µM (inactive) | 38 µM (inactive) | > 100 µM (inactive)
CCc1cccc(C)c1NC(=O)C(=O)Cc1nc2ccccc2o1 | > 100 µM (inactive) |  | > 100 µM (inactive) | > 100 µM (inactive) | > 100 µM (inactive) | > 100 µM (inactive) | > 100 µM (inactive) | > 100 µM (inactive) | > 100 µM (inactive) | > 100 µM (inactive) | > 100 µM (inactive) | > 100 µM (inactive) |  | > 100 µM (inactive) | > 100 µM (inactive) | > 100 µM (inactive)
CCOC(=O)CC1=N/C(=N/C(=N)N[N+](=O)[O-])SC1 | > 100 µM (inactive) | > 100 µM (inactive) | > 100 µM (inactive) | > 100 µM (inactive) | > 100 µM (inactive) | > 100 µM (inactive) | > 100 µM (inactive) | > 100 µM (inactive) | > 100 µM (inactive) | > 100 µM (inactive) | > 100 µM (inactive) | > 100 µM (inactive) | > 100 µM (inactive) | > 100 µM (inactive) | > 100 µM (inactive) | > 100 µM (inactive)
CN(C)c1ccc2nc3c(ccc4ccccc43)[o+]c2c1 | 17.8 µM (inactive) | 18.7 µM (inactive) | 3.17 µM (inactive) | 5.51 µM (inactive) | 17.5 µM (inactive) | 19 µM (inactive) | 18.3 µM (inactive) | 15.3 µM (inactive) | 12.3 µM (inactive) | 13.8 µM (inactive) | 2.52 µM (inactive) | 19.6 µM (inactive) | 13.4 µM (inactive) | 15.7 µM (inactive) | 17.7 µM (inactive) | 17.3 µM (inactive)
O=C1O[C@@H](c2ccccc2)C[C@H]1CN1CCOCC1 | > 100 µM (inactive) | > 100 µM (inactive) | 33.7 µM (inactive) | > 100 µM (inactive) | > 100 µM (inactive) | > 100 µM (inactive) | > 100 µM (inactive) | > 100 µM (inactive) | > 100 µM (inactive) | > 100 µM (inactive) | > 100 µM (inactive) | > 100 µM (inactive) | > 100 µM (inactive) | 68.1 µM (inactive) |  | 84.9 µM (inactive)
CC1(Br)CC2OC3(Br)C=CC(C)(O)C2(CC1=O)C3(C)C (stereo unspecified) | > 100 µM (inactive) | > 100 µM (inactive) | 16 µM (inactive) | 98.2 µM (inactive) | > 100 µM (inactive) | > 100 µM (inactive) | 64.4 µM (inactive) | > 100 µM (inactive) | > 100 µM (inactive) | > 100 µM (inactive) | 53.3 µM (inactive) | > 100 µM (inactive) | > 100 µM (inactive) | > 100 µM (inactive) | > 100 µM (inactive) | > 100 µM (inactive)
CC(C)C(=O)Nc1nc2c(ncn2C2OC(CO)C(O)C2O)c(=O)[nH]1 (stereo unspecified) | > 100 µM (inactive) | > 100 µM (inactive) | > 100 µM (inactive) | > 100 µM (inactive) | > 100 µM (inactive) | > 100 µM (inactive) | > 100 µM (inactive) | > 100 µM (inactive) | > 100 µM (inactive) | > 100 µM (inactive) | > 100 µM (inactive) | > 100 µM (inactive) | > 100 µM (inactive) | > 100 µM (inactive) |  | > 100 µM (inactive)
